# Biological target: PIK3CB;PIK3CG;PIK3CD;PIK3CA (human) (UniProt P48736)
# Assay: Enzyme Assay
row,IC50 [nM],SMILES
1,212,O=C(c1nn(C2CCCCC2)c2c1CS(=O)(=O)c1ccsc1-2)N1CCOCC1
2,670,O=C(c1nn(-c2ccc3c(c2)OCCO3)c2c1CS(=O)(=O)c1ccccc1-2)N1CCOCC1
3,445,O=C(c1nn(-c2cccc(OCCn3cccn3)c2)c2c1CS(=O)(=O)c1ccccc1-2)N1CCOCC1
4,4520,CS(=O)(=O)c1ccc(-n2nc(C(=O)N3CCOCC3)c3c2-c2ccccc2S(=O)(=O)C3)cc1
5,711,O=C(CC1CCCCC1)N1CCC(n2nc(C(=O)N3CCOCC3)c3c2-c2ccccc2S(=O)(=O)C3)C1 (configuration not stated)
6,3690,O=C(c1nn([C@@H]2CCN(CCN3CCC(F)CC3)C2)c2c1CS(=O)(=O)c1ccccc1-2)N1CCOCC1
7,188,COCCN1CCCC(n2nc(C(=O)N3CCOCC3)c3c2-c2ccccc2S(=O)(=O)C3)C1 (configuration not stated)
8,923,COCCCN1CCC(n2nc(C(=O)N3CCOCC3)c3c2-c2ccccc2S(=O)(=O)C3)C1 (configuration not stated)
9,687,Cn1nc(C(=O)N2CCOCC2)c2c1-c1cccc(F)c1S(=O)(=O)C2
10,495,CC(C)(C)OC(=O)N1CCC(Cn2nc(C(=O)N3CCOCC3)c3c2-c2ccccc2S(=O)(=O)C3)CC1
11,560,O=C(c1nn(-c2cccc(CN3CCC(F)(F)CC3)c2)c2c1CS(=O)(=O)c1ccccc1-2)N1CCOCC1
12,2220,Cn1nc(C(=O)N2CCOCC2)c2c1-c1cc(F)ccc1S(=O)(=O)C2
13,3960,O=C(c1nn(Cc2ccccn2)c2c1CS(=O)(=O)c1ccccc1-2)N1CCOCC1
14,238,O=C(c1ccc(-n2nc(C(=O)N3CCOCC3)c3c2-c2ccccc2S(=O)(=O)C3)cc1)N1CCCCC1
15,1190,O=C(c1nn(Cc2ccccc2)c2c1CS(=O)(=O)c1ccccc1-2)N1CCOCC1
16,2880,O=C(c1n[nH]c2c1CS(=O)(=O)c1ccccc1-2)N1CCOCC1
17,159,CN(C)CC(C)(C)c1ccc(-n2nc(C(=O)N3CCOCC3)c3c2-c2ccccc2S(=O)(=O)C3)cc1
18,1440,O=C(c1nn(CCc2ccccc2)c2c1CS(=O)(=O)c1ccccc1-2)N1CCOCC1
19,400,O=C(c1nn(-c2ccc(CN3CCOCC3)cc2)c2c1CS(=O)(=O)c1ncccc1-2)N1CCOCC1
20,2250,O=C(c1nn(CCCO)c2c1CS(=O)(=O)c1ccccc1-2)N1CCOCC1
21,7,O=C(c1nn([C@H]2CCCN(CCN3CCCC3)C2)c2c1CS(=O)(=O)c1ccccc1-2)N1CCOCC1
22,994,CS(=O)(=O)N1CCCC(n2nc(C(=O)N3CCOCC3)c3c2-c2ccccc2S(=O)(=O)C3)C1 (configuration not stated)

row,IC50 [nM],SMILES
1,1690,O=C(c1nn([C@@H]2CCN(CCC3CCOCC3)C2)c2c1CS(=O)(=O)c1c(F)cccc1-2)N1CCOCC1
2,369,O=C(c1nn(C2CCN(CCN3CCOCC3)CC2)c2c1CS(=O)(=O)c1ccccc1-2)N1CCOCC1
3,99,O=C(c1nn([C@@H]2CCCN(CCC3CCOCC3)C2)c2c1CS(=O)(=O)c1ncccc1-2)N1CCOCC1
4,1840,Cc1ccc2c(c1)S(=O)(=O)Cc1c(C(=O)N3CCOCC3)nn(-c3ccccc3)c1-2
5,122,O=C(c1nn(C2CCCN(CCN3CCOCC3)C2)c2c1CS(=O)(=O)c1ccccc1-2)N1CCOCC1 (configuration not stated)
6,673,O=C(c1nn(C2CCOCC2)c2c1CS(=O)(=O)c1c(Cl)cccc1-2)N1CCOCC1
7,1780,CS(=O)(=O)Nc1cccc(-n2nc(C(=O)N3CCOCC3)c3c2-c2ccccc2S(=O)(=O)C3)c1
8,205,O=C(c1nn(C2CCCC2)c2c1CS(=O)(=O)c1ccccc1-2)N1CCOCC1
9,13,COC1CCN(CCN2CCC[C@H](n3nc(C(=O)N4CCOCC4)c4c3-c3ccc(F)cc3S(=O)(=O)C4)C2)CC1
10,2560,CS(=O)(=O)c1cccc(-n2nc(C(=O)N3CCOCC3)c3c2-c2ccccc2S(=O)(=O)C3)c1
11,1200,CC(C)(C)OC(=O)N1CCC(n2nc(C(=O)N3CCOCC3)c3c2-c2ccccc2S(=O)(=O)C3)C1 (configuration not stated)
12,10300,O=C(c1nn(-c2ccc(-c3ccccc3)cc2)c2c1CS(=O)(=O)c1ccccc1-2)N1CCOCC1
13,1500,Cc1ccc2c(c1)-c1c(c(C(=O)N3CCOCC3)nn1-c1ccccc1)CS2(=O)=O
14,1830,O=C(c1nn(-c2ccccc2)c2c1CS(=O)(=O)c1ccc([N+](=O)[O-])cc1-2)N1CCOCC1
15,764,O=C(c1nn(-c2cccc(-c3ccccc3)c2)c2c1CS(=O)(=O)c1ccccc1-2)N1CCOCC1
16,49,Cc1cccc2c1S(=O)(=O)Cc1c(C(=O)N3CCOCC3)nn([C@H]3CCCN(CCN4CCOCC4)C3)c1-2
17,395,O=C(c1nn(-c2ccc(CN3CC(F)(F)C3)cc2)c2c1CS(=O)(=O)c1ccccc1-2)N1CCOCC1
18,16,O=C(c1nn(C2CCCN(CCN3CCOCC3)C2)c2c1CS(=O)(=O)c1c(F)cccc1-2)N1CCOCC1 (configuration not stated)
19,72,CN(C)CCN1CCCC(n2nc(C(=O)N3CCOCC3)c3c2-c2ccccc2S(=O)(=O)C3)C1 (configuration not stated)
20,422,COc1ccc2c(c1)S(=O)(=O)Cc1c(C(=O)N3CCOCC3)nn(C)c1-2
21,73,NCCN1CCC[C@H](n2nc(C(=O)N3CCOCC3)c3c2-c2ccccc2S(=O)(=O)C3)C1
22,587,CC(C)(C)CCN1CCCC(n2nc(C(=O)N3CCOCC3)c3c2-c2ccccc2S(=O)(=O)C3)C1 (configuration not stated)

row,IC50 [nM],SMILES
1,67,O=C(c1nn(C2CCCN(C3COC3)C2)c2c1CS(=O)(=O)c1ccccc1-2)N1CCOCC1 (configuration not stated)
2,41,O=C(CCN1CCC[C@H](n2nc(C(=O)N3CCOCC3)c3c2-c2ccccc2S(=O)(=O)C3)C1)N1CCC(F)(F)C1
3,345,O=C(CC1CCOCC1)N1CCC[C@H](n2nc(C(=O)N3CCOCC3)c3c2-c2ccccc2S(=O)(=O)C3)C1
4,140,COCCCN1CCCC(n2nc(C(=O)N3CCOCC3)c3c2-c2ccccc2S(=O)(=O)C3)C1 (configuration not stated)
5,438,COCCCN1CCCC(n2nc(C(=O)N3CCOCC3)c3c2-c2ccccc2S(=O)(=O)C3)CC1 (configuration not stated)
6,1110,COCCNC(=O)c1cccc(-n2nc(C(=O)N3CCOCC3)c3c2-c2ccccc2S(=O)(=O)C3)c1
7,2700,O=C(c1nn(-c2cccc(Nc3ccccc3)c2)c2c1CS(=O)(=O)c1ccccc1-2)N1CCOCC1
8,1280,O=C(c1nn([C@@H]2CCCN(CCN3CCOCC3)C2)c2c1CS(=O)(=O)c1ccccc1-2)N1CCOCC1
9,226,CNCc1ccc(-n2nc(C(=O)N3CCOCC3)c3c2-c2ccccc2S(=O)(=O)C3)cc1
10,45,O=C(c1nn([C@@H]2CCN(C3CCOCC3)C2)c2c1CS(=O)(=O)c1ccccc1-2)N1CCOCC1
11,224,O=C(c1nn(-c2ccc(CNC3CCCOC3)cc2)c2c1CS(=O)(=O)c1ccccc1-2)N1CCOCC1 (configuration not stated)
12,21,O=C(c1nn(C2CCCN(CC3CCOC3)C2)c2c1CS(=O)(=O)c1c(F)cccc1-2)N1CCOCC1 (configuration not stated)
13,1200,O=C(c1nn(-c2ccc(CN3CCC(F)CC3)nc2)c2c1CS(=O)(=O)c1ccccc1-2)N1CCOCC1
14,739,O=C(c1nn(-c2cccc(F)c2)c2c1CS(=O)(=O)c1ccccc1-2)N1CCOCC1
15,300,Cc1noc(C)c1-c1cccc(-n2nc(C(=O)N3CCOCC3)c3c2-c2ccccc2S(=O)(=O)C3)c1
16,14800,COc1ccccc1-n1nc(C(=O)N2CCOCC2)c2c1-c1ccccc1S(=O)(=O)C2
17,19,COc1ccc2c(c1)S(=O)(=O)Cc1c(C(=O)N3CCOCC3)nn([C@H]3CCCN(CCN4CCC(F)CC4)C3)c1-2
18,120,O=C(c1nn(C2CCCN(CCN3CCOCC3)C2)c2c1CS(=O)(=O)c1c(Cl)cccc1-2)N1CCOCC1 (configuration not stated)
19,21,COC1CCN(CCN2CCC[C@H](n3nc(C(=O)N4CCOCC4)c4c3-c3ccccc3S(=O)(=O)C4)C2)CC1
20,904,O=C(c1nn(-c2ccccc2)c2c1CS(=O)(=O)c1cc(Br)ccc1-2)N1CCOCC1
21,3900,O=C(c1nn(-c2ccccc2)c2c1C(CC1CC1)S(=O)(=O)c1ccccc1-2)N1CCOCC1 (configuration not stated)
22,230,O=C(c1nn(-c2ccc(CN3CCC(F)(F)CC3)cc2)c2c1CS(=O)(=O)c1ccccc1-2)N1CCOCC1

row,IC50 [nM],SMILES
1,138,CC(C)CCN1CCCC(n2nc(C(=O)N3CCOCC3)c3c2-c2ccccc2S(=O)(=O)C3)C1 (configuration not stated)
2,1230,CN1CCCC1CCn1nc(C(=O)N2CCOCC2)c2c1-c1ccccc1S(=O)(=O)C2 (configuration not stated)
3,795,O=C(c1nn(CCN2CCOCC2)c2c1CS(=O)(=O)c1ccccc1-2)N1CCOCC1
4,55,O=C(c1nn([C@H]2CCN(CCN3CCC(F)CC3)C2)c2c1CS(=O)(=O)c1ccccc1-2)N1CCOCC1
5,469,O=C(c1nn(C2CCCCCC2)c2c1CS(=O)(=O)c1ccccc1-2)N1CCOCC1
6,96,COCCN1CCC[C@H](n2nc(C(=O)N3CCOCC3)c3c2-c2cccc(C)c2S(=O)(=O)C3)C1
7,355,O=C(c1nn(-c2ccc(CN3CCCC(F)(F)C3)cc2)c2c1CS(=O)(=O)c1ccccc1-2)N1CCOCC1
8,2930,O=C(c1nn([C@@H]2CCCN(C3CCCOC3)C2)c2c1CS(=O)(=O)c1ncccc1-2)N1CCOCC1 (some centres not stated)
9,635,COCCOCCN1CCCC(n2nc(C(=O)N3CCOCC3)c3c2-c2ccccc2S(=O)(=O)C3)C1 (configuration not stated)
10,681,COCCN1CCC(Cn2nc(C(=O)N3CCOCC3)c3c2-c2ccccc2S(=O)(=O)C3)CC1
11,2950,Cn1cc(-n2nc(C(=O)N3CCOCC3)c3c2-c2ccccc2S(=O)(=O)C3)ccc1=O
12,166,O=C(c1nn(C2CCN(CCn3ccnc3)C2)c2c1CS(=O)(=O)c1ccccc1-2)N1CCOCC1 (configuration not stated)
13,1760,O=C(c1nn(C2CCN(CCO)CC2)c2c1CS(=O)(=O)c1ccccc1-2)N1CCOCC1
14,59,COC1CCN(Cc2ccc(-n3nc(C(=O)N4CCOCC4)c4c3-c3ccccc3S(=O)(=O)C4)cc2)C1 (configuration not stated)
15,808,CC(C)(C)OC(=O)N1CCC(n2nc(C(=O)N3CCOCC3)c3c2-c2ccccc2S(=O)(=O)C3)CC1
16,120,O=C(c1nn(C2CCN(CCN3CC[C@@H](F)C3)C2)c2c1CS(=O)(=O)c1ccccc1-2)N1CCOCC1 (some centres not stated)
17,39,O=C(CCN1CCC[C@H](n2nc(C(=O)N3CCOCC3)c3c2-c2ccccc2S(=O)(=O)C3)C1)N1CC(F)(F)C1
18,376,N#Cc1cccc(-n2nc(C(=O)N3CCOCC3)c3c2-c2ccccc2S(=O)(=O)C3)c1
19,30,O=C(c1nn([C@H]2CCCN(CCN3CCOCC3)C2)c2c1CS(=O)(=O)c1c(Cl)cccc1-2)N1CCOCC1
20,149,O=C(c1nn(C2CCN(CCN3CCC(F)CC3)C2)c2c1CS(=O)(=O)c1ccccc1-2)N1CCOCC1 (configuration not stated)

row,SMILES,IC50 [nM]
1,O=C(c1nn(C2CN3CCC2CC3)c2c1CS(=O)(=O)c1ccccc1-2)N1CCOCC1 (configuration not stated),10200
